The record followed here is patent US20050032873A1, “3-Amino chroman and 2-amino tetralin derivatives” (Wyeth, priority 2003, published 2005).

Counter-ions that a name gives are not always drawn.

The term melting point denotes the temperature of the solid-liquid transition.

In turn, `CCCN(C(C)CCCc1c[nH]c2ccc(F)cc12)C1COc2c(F)ccc(C(N)=O)c2C1` (single isomer, unassigned; (+)) (as salt: hydrochloride) [Compound 14a, (+)-8-fluoro-3-[[4-(5-fluoro-1H-indol-3-yl)-1-methylbutyl](propyl)amino]chromane-5-carboxamide] came in with a melting point of 148 to 150 °C.

Consider `CNC(=O)c1ccc(F)c2c1CC(N(CCc1c[nH]c3ccc(F)cc13)C1CCC1)CO2` (stereo not shown) (as salt: hydrochloride) [Compound 87, 3-{cyclobutyl[2-(5-fluoro-1H-indol-3-yl)ethyl]amino}-8-fluoro-N-methylchromane-5-carboxamide], for which the melting point was 131 °C (dec.).

As to `CNC(=O)c1ccc(F)c2c1CC(N(CCCCc1c[nH]c3ccc(F)cc13)CC1CC1)CO2` (stereo not shown) (as salt: hydrochloride) [Compound 94, 3-{(cyclopropylmethyl)[4-(5-fluoro-1H-indol-3-yl)butyl]amino}-8-fluoro-N-methylchromane-5-carboxamide], the melting point was 112 °C (dec.).

Regarding `NC(=O)c1ccc(F)c2c1CC(N(CCCc1c[nH]c3ccc(F)cc13)Cc1ccccc1)CO2` (stereo not shown) (as salt: hydrochloride) [Compound 74, 3-{benzyl[3-(5-fluoro-1H-indol-3-yl)propyl]amino}-8-fluorochromane-5-carboxamide], the melting point is 142 to 150 °C (dec.).

Turning to `CNC(=O)c1ccc(F)c2c1CC(N(CCc1c[nH]c3ccc(F)cc13)CC1CC1)CO2` (stereo not shown) (as salt: hydrochloride) [Compound 86, 3-{(cyclopropylmethyl)[2-(5-fluoro-1H-indol-3-yl)ethyl]amino}-8-fluoro-N-methylchromane-5-carboxamide], the melting point is 138 °C (dec.).

For `CCN(CCCc1c[nH]c2ccc(F)cc12)C1COc2c(F)ccc(C(=O)NC)c2C1` (stereo not shown) (as salt: hydrochloride) [Compound 89, 3-{ethyl[3-(5-fluoro-1H-indol-3-yl)propyl]amino}-8-fluoro-N-methylchromane-5-carboxamide], the melting point was 118 °C (dec.).

In the case of `COC(=O)c1ccc(F)c2c1C[C@@H](NCCCCc1c[nH]c3ccc(F)cc13)CO2` (as salt: hydrochloride) [Compound 57b, methyl (3R)-8-fluoro-3-{[4-(5-fluoro-1H-indol-3-yl)butyl]amino}chromane-5-carboxylate], the melting point is 240 °C (dec.).

Turning to `COc1cccc2c(CCCN(CC3CC3)C3COc4c(F)ccc(C(N)=O)c4C3)coc12` (stereo not shown) (as salt: hydrochloride) [Compound 165, 3-{(cyclopropylmethyl)[3-(7-methoxy-1-benzofuran-3-yl)propyl]amino}-8-fluorochromane-5-carboxamide], the melting point was in the range of 125 to 132 °C.

Turning to `CNC(=O)c1ccc(F)c2c1CC(NCCc1c[nH]c3ccc(F)cc13)CO2` (stereo not shown) (as salt: hydrochloride) [Compound 84, 8-fluoro-3-{[2-(5-fluoro-1H-indol-3-yl)ethyl]amino}-N-methylchromane-5-carboxamide], the melting point is 148 °C (dec.).

Compound `CCCN(CCCc1c[nH]c2ccc(F)cc12)C1COc2cccc(OC)c2C1` (stereo not shown) (as salt: hydrochloride) [Compound 23, [3-(5-fluoro-1H-indol-3-yl)propyl]-N-(5-methoxy-chroman-3-yl)propylamine] had a melting point of 117 to 120 °C.

On to `CCCNC(=O)c1ccc(F)c2c1CC(N(CCCc1c[nH]c3ccc(F)cc13)C1CCC1)CO2` (stereo not shown) (as salt: hydrochloride) [Compound 61, 3-{cyclobutyl[3-(5-fluoro-1H-indol-3-yl)propyl]amino}-8-fluoro-N-propylchromane-5-carboxamide], for which the melting point was 67 °C (dec.).

Consider `NC(=O)c1ccc(F)c2c1CC(N(CCCc1c[nH]c3ccc(F)cc13)CC1CC1)CO2` (stereo not shown) (as salt: hydrochloride) [Compound 5, 3-{(cyclopropylmethyl)[3-(5-fluoro-1H-indol-3-yl)propyl]amino}-8-fluorochromane-5-carboxamide], for which the melting point was 121 °C (dec.).

Turning to `CCCN(CCCc1c[nH]c2ccc(F)cc12)C1CCc2c(F)ccc(OC)c2C1` (stereo not shown) (as salt: hydrochloride) [Compound 51, N-[3-(5-fluoro-1H-indol-3-yl)propyl]-N-(5-fluoro-8-methoxy-1,2,3,4-tetrahydronaphthalen-2-yl)-N-propylamine], the melting point was 107 °C (dec.).

As for `COc1cccc2c(CCCN(C3CCC3)C3COc4c(F)ccc(C(N)=O)c4C3)c[nH]c12` (stereo not shown) (as salt: hydrochloride) [Compound 102, 3-{cyclobutyl[3-(7-methoxy-1H-indol-3-yl)propyl]amino}-8-fluorochromane-5-carboxamide], the melting point is 156 to 162 °C (dec.).

In the case of `COc1ccc2[nH]cc(CCCN(C3CCC3)C3COc4c(F)ccc(C(N)=O)c4C3)c2c1` (stereo not shown) (as salt: hydrochloride) [Compound 107, 3-{cyclobutyl[3-(5-methoxy-1H-indol-3-yl)propyl]amino}-8-fluorochromane-5-carboxamide], the melting point was 151 to 158 °C (dec.).

With `CCCN(C1COc2cccc(OC)c2C1)[C@H]1CC[C@H](c2c[nH]c3ccc(F)cc32)CC1` (relative stereo) (as salt: hydrochloride) [Compound 183, trans-N-[4-(5-fluoro-1H-indol-3-yl)cyclohexyl]-5-methoxy-N-propylchroman-3-amine], the melting point is 159 °C (dec.).

Consider `CNC(=O)c1ccc(F)c2c1CC(NCCCc1c[nH]c3ccc(F)cc13)CO2` (stereo not shown) (as salt: hydrochloride) [Compound 88, 8-fluoro-3-{[3-(5-fluoro-1H-indol-3-yl)propyl]amino}-N-methylchromane-5-carboxamide], for which the melting point is 148 °C (dec.).

`COC(=O)c1ccc(F)c2c1CC(NCCCCc1c[nH]c3ccc(F)cc13)CO2` (stereo not shown) (as salt: hydrochloride) [Compound 57, Methyl 8-fluoro-3-{[4-(5-fluoro-1H-indol-3-yl)butyl]amino}chromane-5-carboxylate]: the melting point was 228 °C (dec.).

Consider `NC(=O)c1ccc(F)c2c1CC(NCCCCc1c[nH]c3ccc(F)cc13)CO2` (stereo not shown) (as salt: hydrochloride) [Compound 79, 8-fluoro-3-{[4-(5-fluoro-1H-indol-3-yl)butyl]amino}chromane-5-carboxamide], for which the melting point is 52 °C (dec.).

Take `NC(=O)c1ccc(F)c2c1CC(NCCc1c[nH]c3ccc(F)cc13)CO2` (stereo not shown) (as salt: hydrochloride) [Compound 75, 8-fluoro-3-{[2-(5-fluoro-1H-indol-3-yl)ethyl]amino}chromane-5-carboxamide]: the melting point was 134 °C (dec.).

In the case of `NC(=O)c1ccc(F)c2c1CC(N(CCCc1c[nH]c3ccc(Cl)cc13)C1CCC1)CO2` (stereo not shown) (as salt: hydrochloride) [Compound 117, 3-[[3-(5-chloro-1H-indol-3-yl)propyl](cyclobutyl)amino]-8-fluorochromane-5-carboxamide], the melting point was 152 to 160 °C (dec.).

Regarding `CCN(CCCc1coc2c(OC)cccc12)C1COc2c(F)ccc(C(N)=O)c2C1` (stereo not shown) (as salt: hydrochloride) [Compound 162, 3-{ethyl[3-(7-methoxy-1-benzofuran-3-yl)propyl]amino}-8-fluorochromane-5-carboxamide], the melting point is 125 to 128 °C.

Turning to `NC(=O)c1ccc(F)c2c1CC(N(CCCc1c[nH]c3c(Cl)cccc13)C1CCC1)CO2` (stereo not shown) (as salt: hydrochloride) [Compound 111, 3-[[3-(7-chloro-1H-indol-3-yl)propyl](cyclobutyl)amino]-8-fluorochromane-5-carboxamide], the melting point was 154 to 163 °C (dec.).

On to `COc1cccc2c(CCN(C3CCC3)C3COc4c(F)ccc(C(N)=O)c4C3)coc12` (stereo not shown) (as salt: hydrochloride) [Compound 159, 3-{cyclobutyl[2-(7-methoxy-1-benzofuran-3-yl)ethyl]amino}-8-fluorochromane-5-carboxamide], for which the melting point is 135 to 145 °C (dec.).

With `NC(=O)c1ccc(F)c2c1CC(NCCCc1c[nH]c3c(Cl)cccc13)CO2` (stereo not shown) (as salt: hydrochloride) [Compound 109, 3-{[3-(7-chloro-1H-indol-3-yl)propyl]amino}-8-fluorochromane-5-carboxamide], the melting point is 222 to 224 °C.

On to `CCCN(CCc1c[nH]c2ccc(F)cc12)C1COc2c(F)ccc(C(N)=O)c2C1` (stereo not shown) (as salt: hydrochloride) [Compound 77, 8-fluoro-3-[[2-(5-fluoro-1H-indol-3-yl)ethyl](propyl)amino]chromane-5-carboxamide], for which the melting point is 125 °C (dec.).

Take `CCCN(CCCc1c[nH]c2ccc(F)cc12)[C@@H]1CCc2cccc(OC)c2C1` (as salt: hydrochloride) [Compound 47b, (2R)-N-[3-(5-fluoro-1H-indol-3-yl)propyl]-8-methoxy-N-propyl-1,2,3,4-tetrahydronaphthalen-2-amine]: the melting point was 110 °C (dec.).

For the compound `CCCN(CCCc1c[nH]c2c(Cl)cccc12)C1COc2c(F)ccc(C(N)=O)c2C1` (stereo not shown) (as salt: hydrochloride) [Compound 113, 3-[[3-(7-chloro-1H-indol-3-yl)propyl](propyl)amino]-8-fluorochromane-5-carboxamide], the melting point is 145 to 154 °C (dec.).

For `CCN(CCc1c[nH]c2ccc(F)cc12)C1CCc2cccc(OC)c2C1` (stereo not shown) (as salt: hydrochloride) [Compound 49, N-ethyl-N-[2-(5-fluoro-1H-indol-3-yl)ethyl]-N-(8-methoxy-1,2,3,4-tetrahydronaphthalen-2-yl)amine], the melting point is 114 °C (dec.).

For the compound `NC(=O)c1ccc(F)c2c1OCC(NCCCc1c[nH]c3ccc(F)cc13)C2` (stereo not shown) (as salt: hydrochloride) [Compound 119, 5-fluoro-3-{[3-(5-fluoro-1H-indol-3-yl)propyl]amino}chromane-8-carboxamide], the melting point was 124 °C (dec.).

Regarding `CCCN(CCCc1c[nH]c2ccc(F)cc12)C1COc2c(F)ccc(C(=O)NC)c2C1` (stereo not shown) (as salt: hydrochloride) [Compound 90, 8-fluoro-3-[[3-(5-fluoro-1H-indol-3-yl)propyl](propyl)amino]-N-methylchromane-5-carboxamide], the melting point is 123 °C (dec.).
